# Source: PubChem BioAssay AID248 (DTP/NCI, 2004)
# Several values for one entry are separate records, joined by “and”; a condition that tells them apart may be missing. Equal values may be shown once. Toxic doses and inconclusive results are not listed.
# System: L1210 leukemia ip in BDF1 mice, survival T/C
# Assay: NCI In Vivo Anticancer Drug Screen. Data for tumor model L1210 Leukemia (intraperitoneal) in B6D2F1 (BDF1) mice
# Conditions: endpoint: mean survival time, higher = longer survival
# Summary of the method: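 Antitumor effect is assessed in tumor-bearing animals. Survival in the compound arm is compared with a vehicle-dosed control arm and expressed as their quotient.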
# [1] = dose: 100.0 mg/kg/injection, schedule: Q01DX009 (ip), vehicle: saline with Tween-80
# [2] = dose: 100.0 mg/kg/injection, schedule: Q04DX003 (ip), vehicle: saline with Tween-80
# [3] = dose: 200.0 mg/kg/injection, schedule: Q01DX009 (ip), vehicle: saline with Tween-80
# [4] = dose: 200.0 mg/kg/injection, schedule: Q04DX003 (ip), vehicle: saline with Tween-80
# [5] = dose: 400.0 mg/kg/injection, schedule: Q01DX009 (ip), vehicle: saline with Tween-80
# [6] = dose: 400.0 mg/kg/injection, schedule: Q04DX003 (ip), vehicle: saline with Tween-80
# [7] = dose: 100.0 mg/kg/injection, schedule: Q04DX002 (ip), vehicle: Klucel (hydroxypropylcellulose) (HPC)
# [8] = dose: 200.0 mg/kg/injection, schedule: Q04DX002 (ip), vehicle: Klucel (hydroxypropylcellulose) (HPC)
# [9] = dose: 100.0 mg/kg/injection, schedule: Q04DX003 (ip), vehicle: saline
# [10] = dose: 200.0 mg/kg/injection, schedule: Q04DX003 (ip), vehicle: saline
# [11] = dose: 100.0 mg/kg/injection, schedule: Q01DX009 (ip), vehicle: Klucel (hydroxypropylcellulose) (HPC)
# [12] = dose: 100.0 mg/kg/injection, schedule: Q04DX003 (ip), vehicle: Klucel (hydroxypropylcellulose) (HPC)
# [13] = dose: 200.0 mg/kg/injection, schedule: Q01DX009 (ip), vehicle: Klucel (hydroxypropylcellulose) (HPC)
# [14] = dose: 200.0 mg/kg/injection, schedule: Q04DX003 (ip), vehicle: Klucel (hydroxypropylcellulose) (HPC)
# [15] = dose: 400.0 mg/kg/injection, schedule: Q01DX009 (ip), vehicle: Klucel (hydroxypropylcellulose) (HPC)
# [16] = dose: 25.0 mg/kg/injection, schedule: Q04DX002 (ip), vehicle: saline with Tween-80
# [17] = dose: 50.0 mg/kg/injection, schedule: Q04DX002 (ip), vehicle: saline with Tween-80
# [18] = dose: 100.0 mg/kg/injection, schedule: Q04DX002 (ip), vehicle: saline with Tween-80
# [19] = dose: 50.0 mg/kg/injection, schedule: Q04DX003 (ip), vehicle: saline
# [20] = dose: 400.0 mg/kg/injection, schedule: Q04DX003 (ip), vehicle: Klucel (hydroxypropylcellulose) (HPC)
smiles,measurement,setting,value
CCOc1ccc(NC(=O)CCN2CCC(O)(c3ccccc3)CC2)cc1,T/C,[1],96 % of control
same,T/C,[2],103 % of control
same,T/C,[3],86 % of control
same,T/C,[4],100 % of control
same,T/C,[5],91 % of control
same,T/C,[6],95 % of control
CN1CCC2(CC1)C(=O)N(Nc1ccccc1)C(=O)C2c1ccccc1 (stereo not drawn),T/C,[7],101 % of control
same,T/C,[8],93 % of control
CN=C1N[N+]2=C(C)CCCC2S1 (stereo not drawn),T/C,[9],95 % of control
same,T/C,[10],95 % of control
Cc1cccnc1NS(=O)(=O)c1ccccc1,T/C,[1],101 % of control
same,T/C,[2],94 % of control
same,T/C,[3],98 % of control
same,T/C,[4],94 % of control
same,T/C,[5],102 % of control
same,T/C,[6],94 % of control
N#CCCN(C(=O)COc1ccc(Cl)cc1Cl)C1CCCCC1,T/C,[11],95 % of control
same,T/C,[12],95 % of control
same,T/C,[13],104 % of control
same,T/C,[14],100 % of control
same,T/C,[15],95 % of control
CCCCCCCCC1NC1CCCCCCCC (stereo not drawn),T/C,[16],98 % of control
same,T/C,[17],88 % of control
same,T/C,"dose: 100.0 mg/kg/injection, schedule: Q04DX002 (ip), vehicle: other",100 % of control
same,T/C,[18],100 % of control
same,T/C,"dose: 200.0 mg/kg/injection, schedule: Q04DX002 (ip), vehicle: other",96 % of control
CCOC(=O)/C(N=O)=C(\O)c1ccc2ccccc2n1,T/C,"dose: 25.0 mg/kg/injection, schedule: Q01DX009 (ip), vehicle: water",115 % of control
same,T/C,"dose: 50.0 mg/kg/injection, schedule: Q01DX009 (ip), vehicle: water",101 % of control
same,T/C,"dose: 100.0 mg/kg/injection, schedule: Q01DX009 (ip), vehicle: water",108 % of control
same,T/C,"dose: 200.0 mg/kg/injection, schedule: Q01DX009 (ip), vehicle: water",89 % of control
same,T/C,"dose: 400.0 mg/kg/injection, schedule: Q01DX009 (ip), vehicle: water",94 % of control
NC(=O)c1ccccc1NC(=O)Nc1ccc(Cl)cc1,T/C,[11],98 % of control
same,T/C,[13],96 % of control
same,T/C,[15],91 % of control
O=C(Nc1ccc(C(=O)c2ccccc2)cc1)Nc1ccc(C(=O)c2ccccc2)cc1,T/C,"dose: 20.0 mg/kg/injection, schedule: Q01DX009 (ip), vehicle: saline with Tween-80",95 % of control
same,T/C,"dose: 40.0 mg/kg/injection, schedule: Q01DX009 (ip), vehicle: saline with Tween-80",87 % of control
same,T/C,"dose: 80.0 mg/kg/injection, schedule: Q01DX009 (ip), vehicle: saline with Tween-80",90 % of control
same,T/C,"dose: 160.0 mg/kg/injection, schedule: Q01DX009 (ip), vehicle: saline with Tween-80",91 % of control
same,T/C,"dose: 320.0 mg/kg/injection, schedule: Q01DX009 (ip), vehicle: saline with Tween-80",93 % of control
[O-]c1nn(-c2ccccc2)c2cccc[n+]12,T/C,"dose: 75.0 mg/kg/injection, schedule: Q01DX001 (ip), vehicle: saline",111 % of control
C[n+]1ccc(C=O)cc1,T/C,"dose: 50.0 mg/kg/injection, schedule: Q01DX001 (ip), vehicle: saline",102 % of control
same,T/C,"dose: 50.0 mg/kg/injection, schedule: Q01DX009 (ip), vehicle: saline",104 % of control and 109 % of control
same,T/C,[19],103 % of control
same,T/C,"dose: 100.0 mg/kg/injection, schedule: Q01DX001 (ip), vehicle: saline",105 % of control
same,T/C,"dose: 100.0 mg/kg/injection, schedule: Q01DX009 (ip), vehicle: saline",102 % of control and 117 % of control
same,T/C,"dose: 100.0 mg/kg/injection, schedule: Q04DX002 (ip), vehicle: saline",94 % of control and 107 % of control
same,T/C,[9],101 % of control
same,T/C,"dose: 200.0 mg/kg/injection, schedule: Q01DX001 (ip), vehicle: saline",105 % of control
same,T/C,"dose: 200.0 mg/kg/injection, schedule: Q01DX009 (ip), vehicle: saline",106 % of control and 120 % of control
same,T/C,"dose: 200.0 mg/kg/injection, schedule: Q04DX002 (ip), vehicle: saline",102 % of control and 104 % of control
same,T/C,[10],94 % of control
same,T/C,"dose: 400.0 mg/kg/injection, schedule: Q04DX002 (ip), vehicle: saline",98 % of control and 100 % of control
C=C(Cl)CO,T/C,"dose: 25.0 mg/kg/injection, schedule: Q04DX003 (ip), vehicle: saline",118 % of control
same,T/C,[19],89 % of control
CC1=C(C)C23OCC(CO2)CC3=C(C)C1=O,T/C,"dose: 100.0 mg/kg/injection, schedule: Q01DX001 (ip), vehicle: saline with Tween-80",93 % of control
same,T/C,"dose: 200.0 mg/kg/injection, schedule: Q01DX001 (ip), vehicle: saline with Tween-80",122 % of control
same,T/C,"dose: 400.0 mg/kg/injection, schedule: Q01DX001 (ip), vehicle: saline with Tween-80",104 % of control
COc1c(O)cc2oc3cc(O)c(CC=C(C)C)c(O)c3c(=O)c2c1CC=C(C)C,T/C,"dose: 100.0 mg/kg/injection, schedule: Q01DX001 (ip), vehicle: Klucel (hydroxypropylcellulose) (HPC)",97 % of control
same,T/C,[11],96 % of control
same,T/C,[12],105 % of control
same,T/C,"dose: 200.0 mg/kg/injection, schedule: Q01DX001 (ip), vehicle: Klucel (hydroxypropylcellulose) (HPC)",97 % of control
same,T/C,[14],105 % of control
same,T/C,"dose: 400.0 mg/kg/injection, schedule: Q01DX001 (ip), vehicle: Klucel (hydroxypropylcellulose) (HPC)",98 % of control
same,T/C,[20],100 % of control
CC(=O)OCCS(=O)(=O)c1c(Cl)c(Cl)c(Cl)c(Cl)c1Cl,T/C,[7],95 % of control
same,T/C,[8],88 % of control
CN(C)C(=O)c1cc(NC(=O)Nc2ccc(C3=NCCN3)cc2)cc(NC(=O)Nc2ccc(C3=NCCN3)cc2)c1,T/C,"dose: 15.0 mg/kg/injection, schedule: Q01DX Z (ip), vehicle: saline",158 % of control
same,T/C,"dose: 30.0 mg/kg/injection, schedule: Q01DX Z (ip), vehicle: saline",222 % of control
same,T/C,"dose: 60.0 mg/kg/injection, schedule: Q01DX Z (ip), vehicle: saline",250 % of control
O=C(CCl)OCCCl,T/C,[16],95 % of control
same,T/C,[17],103 % of control
same,T/C,[18],93 % of control and 95 % of control
O=C1/C(=C\c2ccccc2)C(NC2CCCCC2)c2ccccc21 (stereo not drawn),T/C,"dose: 3.12 mg/kg/injection, schedule: Q01DX009 (ip), vehicle: Klucel (hydroxypropylcellulose) (HPC)",108 % of control
same,T/C,"dose: 6.25 mg/kg/injection, schedule: Q01DX009 (ip), vehicle: Klucel (hydroxypropylcellulose) (HPC)",101 % of control
same,T/C,"dose: 12.5 mg/kg/injection, schedule: Q01DX009 (ip), vehicle: Klucel (hydroxypropylcellulose) (HPC)",95 % of control
COc1cc2c(cc1OC)C1CNC(=O)C1C(c1ccccc1)C2 (stereo not drawn),T/C,"dose: 50.0 mg/kg/injection, schedule: Q04DX003 (ip), vehicle: Klucel (hydroxypropylcellulose) (HPC)",103 % of control
same,T/C,[11],100 % of control
same,T/C,[12],98 % of control
same,T/C,[13],102 % of control
same,T/C,[14],95 % of control
same,T/C,[15],94 % of control
same,T/C,[20],98 % of control
CC1CC2C(CC1=O)C(C)(C)CCC2(C)C (stereo not drawn),T/C,[11],92 % of control
same,T/C,[13],94 % of control
same,T/C,[14],107 % of control
same,T/C,[15],90 % of control
same,T/C,[20],91 % of control
COC1C(O)C(C)OC(OC2CC3CCC4C(CCC5(C)C(C6=CC(=O)OC6)CCC45O)C3(C)C(OC(C)=O)C2)C1O (stereo not drawn) (tested in a mixture with another compound),T/C,"dose: 25.0 mg/kg/injection, schedule: Q01DX009 (sc), vehicle: steriod suspending solution",101 % of control
